Data as given in article PMC11661359, “Structure guided functional analysis of the S. cerevisiae Mre11 complex” (Research Square, 2024).
Positions count from the first letter of the chain named. In names and notes the source's numbering stands. Values belong to the molecule of their own block, whether it stands above or below them.

Columns and labels:
[1] = target: T1, S. cerevisiae Mre11-Rad50 (MR) complex (Saccharomyces cerevisiae, UniProt P12753, E1235Q, form not given); assay: cryo-EM structure, […] Å; assay type: binding; settings: with 83-mer dsDNA, MgCl2 and MnCl2; ATP bound at Walker A/B interface of Rad50 dimer; hydrolysis-deficient mutant
T1 construct: full-length Rad50 and Mre11 (C-terminal 1xFLAG on Mre11 given for MR-EQ), purified from yeast; 2:2 complex, no Xrs2; with Double-strand break repair protein MRE11
T1 sequence (P12753 1-1312 E1235Q): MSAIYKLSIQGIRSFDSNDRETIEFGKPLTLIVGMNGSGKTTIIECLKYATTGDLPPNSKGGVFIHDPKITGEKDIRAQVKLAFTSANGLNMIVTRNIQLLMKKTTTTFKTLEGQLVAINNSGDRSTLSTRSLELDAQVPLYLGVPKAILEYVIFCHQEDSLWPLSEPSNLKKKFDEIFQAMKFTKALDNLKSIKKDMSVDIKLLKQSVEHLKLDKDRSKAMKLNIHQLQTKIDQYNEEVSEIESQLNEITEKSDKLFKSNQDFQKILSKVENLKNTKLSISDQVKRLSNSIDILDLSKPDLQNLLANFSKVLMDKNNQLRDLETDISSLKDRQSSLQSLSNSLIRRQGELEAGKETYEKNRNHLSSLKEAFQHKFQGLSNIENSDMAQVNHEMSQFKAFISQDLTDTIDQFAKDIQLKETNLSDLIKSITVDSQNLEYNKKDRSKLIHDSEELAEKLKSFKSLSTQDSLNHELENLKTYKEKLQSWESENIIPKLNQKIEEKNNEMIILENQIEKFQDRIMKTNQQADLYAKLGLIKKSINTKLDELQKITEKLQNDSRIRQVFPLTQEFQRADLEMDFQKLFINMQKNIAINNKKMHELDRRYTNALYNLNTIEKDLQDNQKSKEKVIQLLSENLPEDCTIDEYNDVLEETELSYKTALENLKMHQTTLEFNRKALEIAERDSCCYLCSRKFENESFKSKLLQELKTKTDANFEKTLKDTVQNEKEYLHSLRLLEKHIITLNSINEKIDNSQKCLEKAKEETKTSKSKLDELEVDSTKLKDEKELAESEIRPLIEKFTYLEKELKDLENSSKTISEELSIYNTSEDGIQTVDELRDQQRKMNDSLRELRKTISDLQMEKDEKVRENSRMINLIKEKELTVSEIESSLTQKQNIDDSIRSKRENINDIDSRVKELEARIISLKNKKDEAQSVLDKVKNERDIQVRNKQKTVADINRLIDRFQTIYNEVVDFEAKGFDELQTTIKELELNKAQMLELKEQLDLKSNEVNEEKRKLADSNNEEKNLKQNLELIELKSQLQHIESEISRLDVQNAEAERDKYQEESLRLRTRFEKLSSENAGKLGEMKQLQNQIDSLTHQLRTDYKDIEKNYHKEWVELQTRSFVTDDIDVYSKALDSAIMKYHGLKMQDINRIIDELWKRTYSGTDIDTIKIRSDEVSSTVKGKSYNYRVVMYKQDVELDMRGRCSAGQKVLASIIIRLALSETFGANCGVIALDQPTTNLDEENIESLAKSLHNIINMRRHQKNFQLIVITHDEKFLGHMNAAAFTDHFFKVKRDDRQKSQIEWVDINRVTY
T1 sequence (P32829 1-692 partner): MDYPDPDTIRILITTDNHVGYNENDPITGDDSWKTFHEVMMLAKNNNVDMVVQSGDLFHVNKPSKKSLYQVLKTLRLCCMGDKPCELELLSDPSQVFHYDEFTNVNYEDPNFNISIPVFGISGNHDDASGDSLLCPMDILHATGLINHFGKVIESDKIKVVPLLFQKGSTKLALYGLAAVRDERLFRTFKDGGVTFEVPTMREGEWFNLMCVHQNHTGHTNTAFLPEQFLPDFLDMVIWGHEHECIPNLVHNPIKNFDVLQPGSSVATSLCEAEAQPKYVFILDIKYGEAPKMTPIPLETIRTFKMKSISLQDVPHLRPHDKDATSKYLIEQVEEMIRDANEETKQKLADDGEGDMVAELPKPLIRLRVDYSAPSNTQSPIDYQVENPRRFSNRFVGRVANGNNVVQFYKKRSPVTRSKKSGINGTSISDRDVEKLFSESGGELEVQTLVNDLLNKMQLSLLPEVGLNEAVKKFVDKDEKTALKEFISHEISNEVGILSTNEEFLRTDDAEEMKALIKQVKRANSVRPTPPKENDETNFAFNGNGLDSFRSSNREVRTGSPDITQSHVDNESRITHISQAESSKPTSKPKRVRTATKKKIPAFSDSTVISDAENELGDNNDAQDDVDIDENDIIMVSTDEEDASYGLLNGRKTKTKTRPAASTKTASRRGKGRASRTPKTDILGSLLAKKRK

[2] = target: T2, S. cerevisiae Mre11-Rad50 (MR) complex (Saccharomyces cerevisiae, UniProt P12753, K192A/K195A/K196A, form not given); assay: ATP hydrolysis, radiolabelled phosphate by thin-layer chromatography; assay type: biochemical; settings: 0-2 uM MR, ss and dsDNA, MgCl2, 90 min; labelled compound
T2 construct: full-length Rad50 and Mre11 (C-terminal 1xFLAG on Mre11 given for MR-EQ), purified from yeast; 2:2 complex, no Xrs2; with Double-strand break repair protein MRE11
T2 sequence (P12753 1-1312 K192A/K195A/K196A): T1 sequence (P12753 1-1312 E1235Q) with K192A, K195A, K196A, Q1235E
T2 sequence (P32829 1-692 partner): T1 sequence (P32829 1-692 partner)

[3] = target: T3, S. cerevisiae Rad50-E1235Q (R^EQ of the purified MR^EQ complex) (S. cerevisiae, UniProt P12753 1-1312, E1235 residue of Rad50 was mutated to Q); assay: cryo-EM structure; purified MR^EQ incubated with a 83-mer dsDNA in the presence of ATP, MgCl2 and MnCl2; 3.2 Å; settings: both partners purified
T3 construct: Rad50, S. cerevisiae; residues 239-1089 (coiled coil arm and Zn hook) are said to be flexible and not traced; also called Rad50-EQ; source: S. cerevisiae, purified from yeast extracts together with Mre11-FLAG (FLAG-Agarose, Heparin-Sepharose, gel filtration)
T3 sequence: T1 sequence (P12753 1-1312 E1235Q)

Molecule: Nc1ncnc2c1ncn2[C@@H]1O[C@H](COP(=O)(O)OP(=O)(O)OP(=O)(O)O)[C@@H](O)[C@H]1O [ATP]
cryo-EM structure, 3.2 Å [1]: MR^EQ was incubated with a 83-mer double stranded DNA (dsDNA) in the presence of ATP | ATP hydrolysis, radiolabelled phosphate by thin-layer chromatography [2]: Rad50–3KA, Rad50-K60A R1201A and Rad50-R131A R1201A were as defective as the Rad50-EQ mutant

binding result [3]: binds
B1: S. cerevisiae Mre11 with a C-terminal 1xFLAG tag (Mre11 of the purified MR^EQ complex) (enzyme)
chain: T1 sequence (P32829 1-692 partner)
notes: Mre11, S. cerevisiae; residues 413-441 and 508-692 are said to be flexible and not traced; Two symmetry-related Mre11 subunits stand in the structure; also called M of MR^EQ; source: S. cerevisiae, purified from yeast extracts together with Rad50-E1235Q (FLAG-Agarose, Heparin-Sepharose, gel filtration); not shown: 1xFLAG, C-terminal, kept
